Measured values published in paper PMC3538727, “Design, Synthesis and Biological Evaluation of Novel Piperazine Derivatives as CCR5 Antagonists” (PLoS ONE, 2013).
Entries after “also recorded” stand apart in the source; their conditions may differ. Read-outs that look alike come from different tables or passages of the source.

Tests used:
CCR5 = target: T1, CCR5 (Homo sapiens, UniProt P51681); assay: Cell-cell fusion assay (CCF assay, CCR5-mediated fusion); type: cell-based; conditions: for inhibition at 10 µM: CCR5, read-out: inhibition rate (10 µM), CCR5 fusion activity; for inhibition at 10 µM / IC50 / inhibition rate (10 µM), CCR5 fusion activity: mean of at least two experiments, DMSO as negative control; for fold loss of CCR5 fusion potency in comparison to 9e: relative to 9e
T1 construct: expressed in transfected cells
T1 sequence (P51681 whole entry, the tested form may be a part): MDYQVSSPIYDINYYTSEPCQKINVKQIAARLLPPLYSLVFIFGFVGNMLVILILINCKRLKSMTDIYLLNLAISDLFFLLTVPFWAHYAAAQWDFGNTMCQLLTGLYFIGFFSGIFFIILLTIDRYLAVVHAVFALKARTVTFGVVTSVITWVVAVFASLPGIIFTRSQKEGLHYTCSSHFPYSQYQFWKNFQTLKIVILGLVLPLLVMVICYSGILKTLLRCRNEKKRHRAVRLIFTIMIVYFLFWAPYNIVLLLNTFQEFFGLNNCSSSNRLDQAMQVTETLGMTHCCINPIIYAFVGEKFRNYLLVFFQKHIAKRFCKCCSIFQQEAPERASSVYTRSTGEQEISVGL
Excerpt: A total of 21 novel piperazine derivatives 9a–h, 13a–d, 17, and 23a–h were screened for their inhibitory activity against cell-cell fusion between target cells expressing CD4/CCR5 and effector cells expressing the envelope protein of HIV-1, gp-120 (fusion assay).
Effector cell line: This cell line express HIV envelope protein gp160 and chimera protein Rn-Dn. Rn-Dn is consist of the N terminal of renilla luciferase and the N terminal of DnaE intein from Anacystis nidulans R2 PCC7942.
Target cell line: This cell line express chemokine receptor 5(CCR5), CD4 protein and chimera protein Dc-Rc. Dc-Rc is consist of the C teminal of renilla luceferase and the C teminal of NnaE intein from Anacystis nidulans R2 PCC7942.
The cell-cell fusion assay was performed as described previously.The effector cells were plated in 24 well white culture plates at 7.5×10^4 cell per well in DMEM supplemented with 10% FBS, 800 µg/mL G418. The target cells in the growth medium were then added to the plates at 7.5×10^4 cells/50 µL/well and incubated for 5 hours. At the end of coculture, 70 µL of renilla luceferase assay lysis was added into each well, and the cultures were gently shaken for 15 min. At the same time, add 20 µl of Renilla Luciferase Assay Reagent to the luminometer tube. Add 20 µl of cell lysate to the tube. Mix quickly by flicking the tube for 1 second. Place the tube in FB12 luminometer and initiate measurement. Luminescence was integrated over 1 second with a 2-second delay. When small molecule compounds needed to be added to the CCF assay system, the compounds were diluted manually in DMSO. Then, 10 µL of the diluted compounds was added to the effector cells just before the addition of target cells, thus making the final concentration of DMSO in the coculture 0.5%.

[1] = tested on: recombinant HIV-1 virus pseudotyped with the envelope proteins of the CCR5-tropic virus; assay: microbe, parasite or virus in culture; type: cell-based; conditions: for inhibition at 10 µM: Human immunodeficiency virus 1, SUP-T1, read-out: inhibition rate (10 µM), antiviral activity
Procedure: Fluorophenyl analogs 9e–g, phenyl, chlorophenyl, and trifluorophenyl analog 23a–c, and cyclohexyl analog 23 h were evaluated for their anti-HIV activity using a recombinant HIV-1 virus pseudotyped with the envelope proteins of the CCR5-tropic virus (HIV-1 single cycle antiviral assay). For overall estimation of the therapeutic potential of these novel CCR5 antagonists, maraviroc was used as a positive control.
HIV-1 proviral indicator construct pNL-Luc-E- contains a full-length HIV-1 genome, in which env was replaced by firefly Luciferase coding sequence. pENV-Ad8 expresses R5-tropic envelope (AD8).
Single-cycle HIV-1 replication assays were performed as described previously. In brief, 4×10^5 293T cells were co-transfected with 0.4 µg of pNL-Luc-E- and 0.4 µg of pENV-R5. After 48h, the supernatant containing pseudovirion was harvested by filtration through a 0.45 µm filter and the amount of viral capsid protein was measured by p24 antigen capture ELISA (Biomerieux). The resultant supernatant (10 µL) was used to infect SupT1 cells (1×10^5) in 96-well plates in the presence of testing compound at the concentration indicated. The SupT1 cells were lysed 48h post-infection and firefly luciferase activities were determined using a firefly Luciferase Assay System (Promega). Values were normalized to the control group treated with DMSO, and represented relative infectivity of each sample testing.

[2] = mean of two experiments, DMSO as negative control

Row | Compound | inhibition at 10 µM (CCR5) | melting point | IC50 (CCR5) | further results
1 | Cc1ccc(N2CCN(CCC(NC(=O)c3ccccc3)c3ccccc3)CC2)cc1 (centres unmarked) [Compound 9a] | 47% | 165 to 167 °C |  | 
2 | Cc1ccc(N2CCN(CCC(NC(=O)c3ccc(F)cc3)c3ccccc3)CC2)cc1 (centres unmarked) [Compound 9b] | 35% | 171 to 173 °C |  | 
3 | O=C(NC(CCN1CCN(c2ccc(F)cc2)CC1)c1ccccc1)c1ccc(F)cc1 (centres unmarked) [Compound 9c] | 41% | 157 to 159 °C |  | 
4 | O=C(NC(CCN1CCN(c2ccc(F)cc2)CC1)c1ccccc1)c1ccccc1 (centres unmarked) [Compound 9d] | 26% | 152 to 154 °C |  | 
5 | N#Cc1ccc(N2CCN(CCC(NC(=O)c3ccc(F)cc3)c3ccccc3)CC2)cc1 (centres unmarked) [Compound 9e] |  | 160 to 162 °C | 0.64 µM | inhibition rate (10 µM), antiviral activity [1, 2]: weak anti-HIV activity; inhibition at 10 µM [1]: 23.8%
6 | N#Cc1ccc(N2CCN(CCC(NC(=O)c3ccc(F)cc3)c3ccc(Cl)cc3)CC2)cc1 (centres unmarked) [Compound 9f] |  | 121 to 123 °C | 3.7 µM | fold loss of CCR5 fusion potency in comparison to 9e (CCR5): 5 fold; inhibition rate (10 µM), antiviral activity [1, 2]: inactive
7 | N#Cc1ccc(N2CCN(CCC(NC(=O)c3ccc(F)cc3)c3ccc(Cl)c(Cl)c3)CC2)cc1 (centres unmarked) [Compound 9g] |  | 85 to 88 °C | 10 µM | fold loss of CCR5 fusion potency in comparison to 9e (CCR5): more than 15 fold; inhibition at 10 µM [1]: 2.9%
8 | NC(=O)c1ccc(N2CCN(CCC(NC(=O)c3ccc(F)cc3)c3ccccc3)CC2)cc1 (centres unmarked) [Compound 9h] | 20% |  |  | 
9 | N#Cc1ccc(N2CCN(CCCN(C(=O)c3ccc(F)cc3)c3ccccc3)CC2)cc1 [Compound 17, N-(3-(4-(4-cyanophenyl)piperazin-1-yl)propyl)-4-fluoro-N-phenylbenzamide] |  | 82 to 84 °C |  | inhibition rate (10 µM), CCR5 fusion activity (CCR5): inactive
10 | N#Cc1ccc(N2CCN(CCC(NC(=O)c3ccccc3)c3ccccc3)CC2)cc1 (centres unmarked) [Compound 23a] |  | 152 to 155 °C | 2.44 µM | fold loss of CCR5 fusion potency in comparison to 9e (CCR5): 4 fold; inhibition at 10 µM [1]: 28.9%
11 | N#Cc1ccc(N2CCN(CCC(NC(=O)c3ccc(Cl)cc3)c3ccccc3)CC2)cc1 (centres unmarked) [Compound 23b] |  | 143 to 145 °C | 2.87 µM | fold loss of CCR5 fusion potency in comparison to 9e (CCR5): 5 fold; inhibition at 10 µM [1]: 29.9%
12 | N#Cc1ccc(N2CCN(CCC(NC(=O)c3ccc(C(F)(F)F)cc3)c3ccccc3)CC2)cc1 (centres unmarked) [Compound 23c] |  | 158 to 160 °C | 10 µM | fold loss of CCR5 fusion potency in comparison to 9e (CCR5): 15 fold; inhibition at 10 µM [1]: 24.6%
13 | N#Cc1ccc(N2CCN(CCC(NC(=O)C3CCCCC3)c3ccccc3)CC2)cc1 (centres unmarked) [Compound 23h] |  |  | 6.29 µM | IC50 ([1]; Human immunodeficiency virus 1, SUP-T1, read-out: IC50 (µM), antiviral activity): 0.44 µM; inhibition at 10 µM [1]: 66.5%
14 | maraviroc [reference compound] |  |  |  | inhibition rate (10 µM), antiviral activity [1, 2]: 96.8%; IC50 ([1]; read-out: IC50 (µM), antiviral activity, mean of two experiments, DMSO as negative control): 0.0011 µM

More lines, main results first:

Row | inhibition at 10 µM (CCR5) | melting point | Compound | IC50 (CCR5) | further results
15 |  | 115 to 119 °C | N#CCc1ccc(N2CCN(CCC(NC(=O)c3ccc(F)cc3)c3ccccc3)CC2)cc1 (centres unmarked) [Compound 13a] |  | inhibition rate (10 µM), CCR5 fusion activity (CCR5): inactive
16 | 22% | 80 to 84 °C | N#Cc1ccc(C(=O)N2CCN(CCC(NC(=O)c3ccc(F)cc3)c3ccccc3)CC2)cc1 (centres unmarked) [Compound 13b] |  | 
17 |  | 83 to 87 °C | N#Cc1ccc(CN2CCN(CCC(NC(=O)c3ccc(F)cc3)c3ccccc3)CC2)cc1 (centres unmarked) [Compound 13c] |  | inhibition rate (10 µM), CCR5 fusion activity (CCR5): inactive
18 | 25% | 98 to 102 °C | N#Cc1ccc(N2CCN(C(=O)CC(NC(=O)c3ccc(F)cc3)c3ccccc3)CC2)cc1 (centres unmarked) [Compound 13d, N-(3-(4-(4-cyanophenyl)piperazin-1-yl)-3-oxo-1-phenylpropyl)-4-fluoro-benzamide] |  | 
19 | 20% | 155 to 158 °C | CC(C)c1ccc(C(=O)NC(CCN2CCN(c3ccc(C#N)cc3)CC2)c2ccccc2)cc1 (centres unmarked) [Compound 23d] |  | 
20 |  | 100 to 105 °C | CC(=O)N1CCC(C(=O)NC(CCN2CCN(c3ccc(C#N)cc3)CC2)c2ccccc2)CC1 (centres unmarked) [Compound 23e] |  | inhibition rate (10 µM), CCR5 fusion activity (CCR5): complete loss in fusion activity; also recorded: inactive
21 | 15% | 121 to 124 °C | N#Cc1ccc(N2CCN(CCC(NC(=O)C3CCN(C(=O)c4ccccc4)CC3)c3ccccc3)CC2)cc1 (centres unmarked) [Compound 23f] |  | 
22 |  | 132 to 136 °C | N#Cc1ccc(N2CCN(CCC(NC(=O)c3ccco3)c3ccccc3)CC2)cc1 (centres unmarked) [Compound 23g] |  | inhibition rate (10 µM), CCR5 fusion activity (CCR5): inactive
